Data published in patent US9474790B2, “Stable, protracted GLP-1/glucagon receptor co-agonists for medical use” (Novo Nordisk A/S, priority 2013, dated 2016).
Numbered stars: 1 amine (or outer) side, 2 acyl side, 3 side chain; on linkers, the order of the positions; unused ones are H or OH. Bridge positions count the residues as written; N and C are the ends. Square brackets hold non-standard residues; d marks the D form. Side chains are listed from the residue outwards. Peptide text beside a SMILES is read from it. I, II: the chains in the order shown. * marks the point of attachment. C18 diacid = O=C(O)CCCCCCCCCCCCCCCCC(=O)*; γGlu = O=C(O)[C@H](CCC(=O)[*:2])N[*:1]; Ac4c = NC1(C(=O)O)CCC1; AEEA = NCCOCCOCC(=O)O; Aib = CC(C)(N)C(=O)O

Experiment: Thioflavin T (ThT) fibrillation assay for physical stability
Assay type: physicochemical
Conditions: 250 μM in 10 mM HEPES buffer, pH 7.5, 37° C., shaking 960 rpm
In short: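 Peptide at 250 μM in 10 mM HEPES pH 7.5 with 1 μM ThT, at 37° C with 960 rpm orbital shaking. Fluorescence (ex 444/em 485 nm) read every 20 min after 10 min pre-incubation; sigmoidal fit gives lag time (t0−2τ) and kapp (1/τ). Recovery is RP-HPLC peptide in the centrifuged, 0.22 μm-filtered supernatant as % of initial.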

Row | SMILES | THT assay Lag time (Ex. 76) [h]
1 | CC(C)C[C@H](NC(=O)[C@H](Cc1ccc(O)cc1)NC(=O)[C@H](CCCCN)NC(=O)[C@H](CO)NC(=O)[C@H](CC(C)C)NC(=O)[C@H](CC(=O)O)NC(=O)[C@H](CO)NC(=O)[C@@H](NC(=O)[C@H](Cc1ccccc1)NC(=O)[C@@H](NC(=O)CNC(=O)[C@H](Cc1c[nH]cn1)NC(=O)C(C)(C)NC(=O)[C@@H](N)Cc1c[nH]cn1)[C@@H](C)O)[C@@H](C)O)C(=O)N[C@@H](CCC(=O)O)C(=O)N[C@@H](CO)C(=O)N[C@@H](CCCNC(=N)N)C(=O)N[C@@H](CCCNC(=N)N)C(=O)N[C@@H](C)C(=O)N[C@@H](CCCNC(=N)N)C(=O)N[C@@H](CCC(=O)O)C(=O)N[C@@H](Cc1ccccc1)C(=O)N[C@H](C(=O)N[C@@H](CCC(N)=O)C(=O)N[C@@H](Cc1c[nH]c2ccccc12)C(=O)N[C@@H](CC(C)C)C(=O)N[C@@H](CC(C)C)C(=O)N[C@@H](CCCCNC(=O)CC[C@H](NC(=O)CC[C@H](NC(=O)COCCOCCNC(=O)COCCOCCNC(=O)CC[C@H](NC(=O)CCCCCCCCCCCCCCCCC(=O)O)C(=O)O)C(=O)O)C(=O)O)C(=O)N[C@H](C(N)=O)[C@@H](C)O)C(C)C [Example 33, N^ε28-[(4S)-4-carboxy-4-[[(4S)-4-carboxy-4-[[2-[2-[2-[[2-[2-[2-[[(4S)-4-carboxy-4-(17-carboxyheptadecanoylamino)butanoyl]amino]ethoxy]ethoxy]acetyl]amino]ethoxy]ethoxy]acetyl]amino]butanoyl]amino]butanoyl]-[Aib2,His3,Leu10,Glu15,Arg20,Glu21,Leu27,Lys28]-Glucagon amide] (H-H[Aib]HGTFTSDLSKYLESRRAREFVQWLLK([γGlu-γGlu-AEEA-AEEA-γGlu-C18 diacid])T-NH2; N-terminus assumed) | 45
2 | CC(C)C[C@H](NC(=O)[C@H](Cc1ccc(O)cc1)NC(=O)[C@H](CCCCN)NC(=O)[C@H](CO)NC(=O)[C@H](CC(C)C)NC(=O)[C@H](CC(=O)O)NC(=O)[C@H](CO)NC(=O)[C@@H](NC(=O)[C@H](Cc1ccccc1)NC(=O)[C@@H](NC(=O)CNC(=O)[C@H](Cc1c[nH]cn1)NC(=O)C1(NC(=O)[C@@H](N)Cc2c[nH]cn2)CCC1)[C@@H](C)O)[C@@H](C)O)C(=O)N[C@@H](CCC(=O)O)C(=O)N[C@@H](CO)C(=O)N[C@@H](CCCNC(=N)N)C(=O)N[C@@H](CCCNC(=N)N)C(=O)N[C@@H](C)C(=O)N[C@@H](CCC(N)=O)C(=O)N[C@@H](CC(=O)O)C(=O)N[C@@H](Cc1ccccc1)C(=O)N[C@H](C(=O)N[C@@H](CCC(N)=O)C(=O)N[C@@H](Cc1c[nH]c2ccccc12)C(=O)N[C@@H](CC(C)C)C(=O)N[C@@H](CC(C)C)C(=O)N[C@@H](CCCCNC(=O)CNC(=O)[C@H](CO)NC(=O)[C@H](CCC(=O)O)NC(=O)CNC(=O)[C@H](CO)NC(=O)CC[C@H](NC(=O)CC[C@H](NC(=O)CCCCCCCCCCCCCCCCC(=O)O)C(=O)O)C(=O)O)C(=O)N[C@H](C(N)=O)[C@@H](C)O)C(C)C [Example 35, N^ε28-[2-[[(2S)-2-[[(2S)-4-carboxy-2-[[2-[[(2S)-2-[[(4S)-4-carboxy-4-[[(4S)-4-carboxy-4-(17-carboxyheptadecanoylamino)butanoyl]amino]butanoyl]amino]-3-hydroxypropanoyl]amino]acetyl]amino]butanoyl]amino]-3-hydroxypropanoyl]amino]acetyl]-[Acb2,His3,Leu10,Glu15, Leu27,Lys28]-Glucagon amide] (I: H-H[Ac4c]HGTFTSDLSKYLESRRAQDFVQWLLKT-NH2 / II: {C18 diacid-γGlu-γGlu}-SGESG; amide I:28-II:C; N-terminus assumed) | 45
3 | CC(C)C[C@H](NC(=O)[C@H](Cc1ccc(O)cc1)NC(=O)[C@H](CCCCN)NC(=O)[C@H](CO)NC(=O)[C@H](CC(C)C)NC(=O)[C@H](CC(=O)O)NC(=O)[C@H](CO)NC(=O)[C@@H](NC(=O)[C@H](Cc1ccccc1)NC(=O)[C@@H](NC(=O)CNC(=O)[C@H](Cc1c[nH]cn1)NC(=O)C(C)(C)NC(=O)[C@@H](N)Cc1c[nH]cn1)[C@@H](C)O)[C@@H](C)O)C(=O)N[C@@H](CCC(=O)O)C(=O)N[C@@H](CO)C(=O)N[C@@H](CCCNC(=N)N)C(=O)N[C@@H](CCCNC(=N)N)C(=O)N[C@@H](C)C(=O)N[C@@H](CCCNC(=N)N)C(=O)N[C@@H](CC(=O)O)C(=O)N[C@@H](Cc1ccccc1)C(=O)N[C@H](C(=O)N[C@@H](CCC(N)=O)C(=O)N[C@@H](Cc1c[nH]c2ccccc12)C(=O)N[C@@H](CC(C)C)C(=O)N[C@@H](CC(C)C)C(=O)N[C@@H](CCCCNC(=O)CNC(=O)[C@H](CO)NC(=O)[C@H](CCC(=O)O)NC(=O)CNC(=O)[C@H](CO)NC(=O)CC[C@H](NC(=O)CC[C@H](NC(=O)CCCCCCCCCCCCCCCCC(=O)O)C(=O)O)C(=O)O)C(=O)N[C@H](C(N)=O)[C@@H](C)O)C(C)C [Example 37, N^ε28-[2-[[(2S)-2-[[(2S)-4-carboxy-2-[[2-[[(2S)-2-[[(4S)-4-carboxy-4-[[(4S)-4-carboxy-4-(17-carboxyheptadecanoylamino)butanoyl]amino]butanoyl]amino]-3-hydroxypropanoyl]amino]acetyl]amino]butanoyl]amino]-3-hydroxypropanoyl]amino]acetyl]-[Aib2,His3,Leu10,Glu15, Arg20,Leu27,Lys28]-Glucagon amide] (I: H-H[Aib]HGTFTSDLSKYLESRRARDFVQWLLKT-NH2 / II: {C18 diacid-γGlu-γGlu}-SGESG; amide I:28-II:C; N-terminus assumed) | 45
4 | CC(C)C[C@H](NC(=O)[C@H](Cc1ccc(O)cc1)NC(=O)[C@H](CCCCN)NC(=O)[C@H](CO)NC(=O)[C@H](CC(C)C)NC(=O)[C@H](CC(=O)O)NC(=O)[C@H](CO)NC(=O)[C@@H](NC(=O)[C@H](Cc1ccccc1)NC(=O)[C@@H](NC(=O)CNC(=O)[C@H](CCC(N)=O)NC(=O)C(C)(C)NC(=O)[C@@H](N)Cc1c[nH]cn1)[C@@H](C)O)[C@@H](C)O)C(=O)N[C@@H](CCC(=O)O)C(=O)N[C@@H](CO)C(=O)N[C@@H](CCCCN)C(=O)N[C@@H](CCCNC(=N)N)C(=O)N[C@@H](C)C(=O)N[C@@H](CCCNC(=N)N)C(=O)N[C@@H](CCC(=O)O)C(=O)N[C@@H](Cc1ccccc1)C(=O)N[C@H](C(=O)N[C@@H](CCC(N)=O)C(=O)N[C@@H](Cc1c[nH]c2ccccc12)C(=O)N[C@@H](CC(C)C)C(=O)N[C@@H](CC(C)C)C(=O)N[C@@H](CCCCNC(=O)CC[C@H](NC(=O)CC[C@H](NC(=O)[C@H](CO)NC(=O)[C@H](CCC(=O)O)NC(=O)[C@H](CO)NC(=O)CC[C@H](NC(=O)CC[C@H](NC(=O)CCCCCCCCCCCCCCCCC(=O)O)C(=O)O)C(=O)O)C(=O)O)C(=O)O)C(=O)N[C@H](C(N)=O)[C@@H](C)O)C(C)C [Example 52] (H-H[Aib]QGTFTSDLSKYLESKRAREFVQWLLK([γGlu-γGlu-Ser-Glu-Ser-γGlu-γGlu-C18 diacid])T-NH2; N-terminus assumed) | 45
5 | CC(C)C[C@H](NC(=O)[C@H](Cc1ccc(O)cc1)NC(=O)[C@H](CCCNC(=N)N)NC(=O)[C@H](CO)NC(=O)[C@H](CC(C)C)NC(=O)[C@H](CC(=O)O)NC(=O)[C@H](CO)NC(=O)[C@@H](NC(=O)[C@H](Cc1ccccc1)NC(=O)[C@@H](NC(=O)CNC(=O)[C@H](CCC(N)=O)NC(=O)C1(NC(=O)[C@@H](N)Cc2c[nH]cn2)CCC1)[C@@H](C)O)[C@@H](C)O)C(=O)N[C@@H](CCC(=O)O)C(=O)N[C@@H](CO)C(=O)N[C@@H](CCCNC(=N)N)C(=O)N[C@@H](CCCNC(=N)N)C(=O)N[C@@H](C)C(=O)N[C@@H](CCCNC(=N)N)C(=O)N[C@@H](CCC(=O)O)C(=O)N[C@@H](Cc1ccccc1)C(=O)N[C@H](C(=O)N[C@@H](CCC(N)=O)C(=O)N[C@@H](Cc1c[nH]c2ccccc12)C(=O)N[C@@H](CC(C)C)C(=O)N[C@@H](CC(C)C)C(=O)N[C@@H](CCCCNC(=O)CC[C@H](NC(=O)CC[C@H](NC(=O)COCCOCCNC(=O)COCCOCCNC(=O)CC[C@H](NC(=O)CC[C@H](NC(=O)CCCCCCCCCCCCCCCCC(=O)O)C(=O)O)C(=O)O)C(=O)O)C(=O)O)C(=O)N[C@H](C(N)=O)[C@@H](C)O)C(C)C [Example 59, N^ε28-[(4S)-4-carboxy-4-[[(4S)-4-carboxy-4-[[2-[2-[2-[[2-[2-[2-[[(4S)-4-carboxy-4-[[(4S)-4-carboxy-4-(17-carboxyheptadecanoylamino)butanoyl]amino]butanoyl]amino]ethoxy]ethoxy]acetyl]amino]ethoxy]ethoxy]acetyl]amino]butanoyl]amino]butanoyl]-[Acb2,Leu10,Arg12,Glu15,Arg20,Glu21,Leu27,Lys28]-Glucagon amide] (H-H[Ac4c]QGTFTSDLSRYLESRRAREFVQWLLK([γGlu-γGlu-AEEA-AEEA-γGlu-γGlu-C18 diacid])T-NH2; N-terminus assumed) | 12
